Test results published in the Kinase Knowledgebase extract (Sharma et al. 2016).

Biological target: CDK2 (human) (UniProt P24941)
Experiment: Cell-Based Assay

IC50 (hct 116) [µM] | IC50 (sw480) [µM] | IC50 (mda-mb-435) [µM] | SMILES
– | 0.01 to 1 | 1.1 to 9.99 | Cc1[nH]nc2c1N=C(c1ccccc1F)c1cc(C(=O)NCCN3CCOCC3)ccc1N2
10 to 30 | 1.1 to 9.99 | 10 to 30 | O=[N+]([O-])c1ccc2c(c1)C(c1ccccc1Cl)=Nc1c[nH]nc1N2
– | 10 to 30 | – | Cc1[nH]nc2c1N=C(c1ccccc1)c1cc(Br)ccc1N2
– | 1.1 to 9.99 | 1.1 to 9.99 | Cc1[nH]nc2c1N=C(c1ccccc1Cl)c1ccccc1N2
– | – | 0.01 to 1 | C=Cc1[nH]nc2c1N=C(c1ccccc1Cl)c1cc([N+](=O)[O-])ccc1N2
10 to 30 | 10 to 30 | 10 to 30 | CCCc1[nH]nc2c1N=C(c1ccccc1Cl)c1cc([N+](=O)[O-])ccc1N2
10 to 30 | 10 to 30 | – | O=[N+]([O-])c1ccc2c(c1)C(c1ccccc1Cl)=Nc1c(n[nH]c1-c1cccnc1)N2
– | 0.01 to 1 | – | Cc1[nH]nc2c1N=C(c1ccccc1F)c1cc(C(N)=O)ccc1N2
0.01 to 1 | 0.01 to 1 | 0.01 to 1 | CCc1[nH]nc2c1N=C(c1ccccc1Cl)c1cc([N+](=O)[O-])ccc1N2
– | 0.01 to 1 | 0.01 to 1 | Cc1[nH]nc2c1N=C(c1ccccc1)c1cc([N+](=O)[O-])ccc1N2
– | 0.01 to 1 | 1.1 to 9.99 | Cc1[nH]nc2c1N=C(c1ccccc1F)c1cc(C(=O)N3CCOCC3)ccc1N2
1.1 to 9.99 | 1.1 to 9.99 | 0.01 to 1 | O=[N+]([O-])c1ccc2c(c1)C(c1ccccc1Cl)=Nc1c(n[nH]c1C1CC1)N2
– | – | 1.1 to 9.99 | O=[N+]([O-])c1ccc2c(c1)C(c1ccccc1Cl)=Nc1c(n[nH]c1-c1cc[nH]n1)N2
– | – | 10 to 30 | CN(C)Cc1[nH]nc2c1N=C(c1ccccc1Cl)c1cc([N+](=O)[O-])ccc1N2
0.01 to 1 | 0.01 to 1 | 0.01 to 1 | Cc1[nH]nc2c1N=C(c1ccccc1Cl)c1cc([N+](=O)[O-])ccc1N2
– | – | 10 to 30 | N#Cc1[nH]nc2c1N=C(c1ccccc1Cl)c1cc([N+](=O)[O-])ccc1N2
– | 1.1 to 9.99 | 1.1 to 9.99 | Cc1[nH]nc2c1N=C(c1ccccc1Cl)c1cc(Cl)ccc1N2
– | – | 1.1 to 9.99 | O=[N+]([O-])c1ccc2c(c1)C(c1ccccc1Cl)=Nc1c(n[nH]c1-c1c[nH]cn1)N2
– | 1.1 to 9.99 | – | Cc1[nH]nc2c1N=C(c1ccccc1F)c1cc(I)ccc1N2
10 to 30 | – | – | O=C(NCCO)c1ccc2c(c1)C(c1ccccc1F)=Nc1c[nH]nc1N2
– | 0.01 to 1 | – | Cc1[nH]nc2c1N=C(c1ccccc1C(F)(F)F)c1cc([N+](=O)[O-])ccc1N2
– | – | 1.1 to 9.99 | CC(C)c1[nH]nc2c1N=C(c1ccccc1Cl)c1cc(N)ccc1N2
10 to 30 | – | – | COc1cc(O)ccc1-c1[nH]nc2c1N=C(c1ccccc1Cl)c1cc([N+](=O)[O-])ccc1N2
10 to 30 | – | – | O=[N+]([O-])c1ccc2c(c1)C(c1ccccc1Cl)=Nc1c(n[nH]c1-c1cccc3c1OCO3)N2
10 to 30 | – | – | O=[N+]([O-])c1ccc2c(c1)C(c1ccccc1)=Nc1c(n[nH]c1C1CC1)N2

Further lines, the compound ahead of its results:

SMILES | IC50 (hct 116) [µM] | IC50 (sw480) [µM] | IC50 (mda-mb-435) [µM]
O=[N+]([O-])c1ccc2c(c1)C(c1ccccc1Cl)=Nc1c(n[nH]c1-c1ccc[nH]1)N2 | 1.1 to 9.99 | 1.1 to 9.99 | –
Cc1[nH]nc2c1N=C(c1ccccc1)c1cc(F)ccc1N2 | – | 1.1 to 9.99 | 0.01 to 1
Cc1[nH]nc2c1N=C(c1ccccc1F)c1cc(F)ccc1N2 | – | 0.01 to 1 | –
O=Cc1[nH]nc2c1N=C(c1ccccc1Cl)c1cc([N+](=O)[O-])ccc1N2 | – | – | 0.01 to 1
O=[N+]([O-])c1ccc2c(c1)C(c1ccccc1Cl)=Nc1c(n[nH]c1C(F)(F)F)N2 | – | – | 1.1 to 9.99
O=[N+]([O-])c1ccc2c(c1)C(c1ccccc1Cl)=Nc1c(n[nH]c1-c1ccccc1)N2 | 10 to 30 | 10 to 30 | –
O=C(c1ccc2c(c1)C(c1ccccc1F)=Nc1c[nH]nc1N2)N1CCOCC1 | 10 to 30 | 0.01 to 1 | –
Cc1[nH]nc2c1N=C(c1ccccc1Cl)c1cc(N)ccc1N2 | – | 0.01 to 1 | 0.01 to 1
Cc1cn[nH]c1-c1[nH]nc2c1N=C(c1ccccc1Cl)c1cc([N+](=O)[O-])ccc1N2 | 1.1 to 9.99 | 0.01 to 1 | 1.1 to 9.99
O=[N+]([O-])c1ccc2c(c1)C(c1ccccc1Cl)=Nc1c(n[nH]c1-c1ccncc1)N2 | 10 to 30 | 10 to 30 | –
COCc1[nH]nc2c1N=C(c1ccccc1Cl)c1cc([N+](=O)[O-])ccc1N2 | – | – | 1.1 to 9.99
Cc1[nH]nc2c1N=C(c1ccccc1F)c1cc([N+](=O)[O-])ccc1N2 | – | 0.01 to 1 | 0.01 to 1
Cc1[nH]nc2c1N=C(c1ccccc1Cl)c1cc(NS(C)(=O)=O)ccc1N2 | – | 0.01 to 1 | 0.01 to 1
Cc1[nH]nc2c1N=C(c1ccccc1)c1cc(Cl)ccc1N2 | – | 1.1 to 9.99 | 1.1 to 9.99
O=[N+]([O-])c1ccc2c(c1)C(c1ccccc1Cl)=Nc1c(n[nH]c1-c1ccco1)N2 | 10 to 30 | 10 to 30 | –
O=[N+]([O-])c1ccc2c(c1)C(c1ccccc1Cl)=Nc1c(n[nH]c1-c1cncc3ccccc13)N2 | 10 to 30 | – | –
NC(=O)c1ccc2c(c1)C(c1ccccc1F)=Nc1c[nH]nc1N2 | 1.1 to 9.99 | 1.1 to 9.99 | –
O=[N+]([O-])c1ccc2c(c1)C(c1ccccc1F)=Nc1c[nH]nc1N2 | 10 to 30 | 1.1 to 9.99 | 10 to 30

SMILES | IC50 (hct 116) [µM] | IC50 (sw480) [µM] | IC50 (mda-mb-435) [µM]
O=[N+]([O-])c1ccc2c(c1)C(c1ccccc1Cl)=Nc1c(n[nH]c1CO)N2 | – | 0.01 to 1 | 0.01 to 1
Clc1ccccc1C1=Nc2c[nH]nc2Nc2ccccc21 | 10 to 30 | 10 to 30 | –
Cc1[nH]nc2c1N=C(c1ccccc1Cl)c1cc(NS(=O)(=O)NCCl)ccc1N2 | – | 1.1 to 9.99 | 1.1 to 9.99
Cc1[nH]nc2c1N=C(c1ccccc1Cl)c1cc(NS(=O)(=O)N(C)C)ccc1N2 | – | 1.1 to 9.99 | 0.01 to 1
Cc1[nH]nc2c1N=C(c1ccccc1F)c1cc(Cl)ccc1N2 | – | 1.1 to 9.99 | –
CSc1ccc(-c2[nH]nc3c2N=C(c2ccccc2Cl)c2cc([N+](=O)[O-])ccc2N3)cc1 | 10 to 30 | – | –
NNC(=O)c1[nH]nc2c1N=C(c1ccccc1Cl)c1cc([N+](=O)[O-])ccc1N2 | 1.1 to 9.99 | 10 to 30 | –
NC(=O)c1[nH]nc2c1N=C(c1ccccc1Cl)c1cc([N+](=O)[O-])ccc1N2 | – | – | 10 to 30
Cc1[nH]nc2c1N=C(c1ccccc1F)c1ccccc1N2 | – | 0.01 to 1 | 1.1 to 9.99
Cc1[nH]nc2c1N=C(c1ccccc1Cl)c1cc(NS(=O)(=O)N3CCOCC3)ccc1N2 | – | 1.1 to 9.99 | 1.1 to 9.99
COc1ccc2c(c1)C(c1ccccc1Cl)=Nc1c(n[nH]c1C)N2 | – | 1.1 to 9.99 | 1.1 to 9.99
C=CC(=O)Nc1ccc2c(c1)C(c1ccccc1Cl)=Nc1c(n[nH]c1C)N2 | – | 0.01 to 1 | 0.01 to 1
O=[N+]([O-])c1ccc2c(c1)C(c1ccccc1Cl)=Nc1c(n[nH]c1-c1nccs1)N2 | – | – | 10 to 30
O=[N+]([O-])c1ccc2c(c1)C(c1ccccc1)=Nc1c[nH]nc1N2 | 10 to 30 | – | –
O=[N+]([O-])c1ccc2c(c1)C(c1ccccc1Cl)=Nc1c(n[nH]c1-c1cccc3ccccc13)N2 | 10 to 30 | 10 to 30 | –
Cc1[nH]nc2c1N=C(c1ccccc1F)c1cc(C(=O)NCCO)ccc1N2 | – | 0.01 to 1 | 1.1 to 9.99
N#Cc1ccc2c(c1)C(c1ccccc1F)=Nc1c[nH]nc1N2 | 1.1 to 9.99 | 1.1 to 9.99 | 1.1 to 9.99
CC(C)c1[nH]nc2c1N=C(c1ccccc1Cl)c1cc([N+](=O)[O-])ccc1N2 | 1.1 to 9.99 | 0.01 to 1 | 0.01 to 1
